According to patent publication US20240383886A1, “Protein Tyrosine Phosphatase Degraders and Methods of Use Thereof” (CALICO LIFE SCIENCES LLC, priority 2019, published 2024):

Experiments:
PTPN2 [1] = target: T1, PTPN2 (Homo sapiens, UniProt P17706); test: HiBiT-Degradation 293T.109 PTPN2 (Nano-Glo HiBiT Lytic Assay); format: cell-based; settings: 293T.109 (HiBiT-PTPN2) cells, 24.0 hours
T1 construct: expressed in transfected cells; host or cells: 293T (293T.109 HiBiT-PTPN2 line; parental 293T WT from ATCC)
T1 sequence (P17706 1-415): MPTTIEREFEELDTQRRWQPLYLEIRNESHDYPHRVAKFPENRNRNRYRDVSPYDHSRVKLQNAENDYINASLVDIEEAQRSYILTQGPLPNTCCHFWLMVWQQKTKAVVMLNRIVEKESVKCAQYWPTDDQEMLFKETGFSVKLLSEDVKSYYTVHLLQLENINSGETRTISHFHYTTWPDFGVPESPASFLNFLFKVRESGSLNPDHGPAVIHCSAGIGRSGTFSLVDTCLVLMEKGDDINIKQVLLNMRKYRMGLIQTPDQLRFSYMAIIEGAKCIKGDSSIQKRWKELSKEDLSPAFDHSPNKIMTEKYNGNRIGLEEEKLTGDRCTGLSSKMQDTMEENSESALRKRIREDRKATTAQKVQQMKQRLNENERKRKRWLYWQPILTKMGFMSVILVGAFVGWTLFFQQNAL
From the text: Dulbecco's modified Eagle medium (DMEM) without phenol red and fetal bovine serum (FBS) were purchased from Gibco (Grand Island, NY, USA). Nano-Glo® HiBIT Lytic Assay System was purchased from Promega (Madison, WI, USA). 293T.109 (HiBiT-PTPN2) cell line was generated by ectopically expressing PTPN2 with N-terminal HiBiT fusion tag in 293T WT cell line purchased from ATCC (Manassas, VA, USA). Cell culture flasks and 384-well microplates were acquired from VWR (Radnor, PA, USA).
PTPN2 degradation was determined based on quantification of luminescent signal using Nano-Glo® HiBIT Lytic Assay kit. Test compounds were added to the 384-well plate from a top concentration of 10 μM with 11 points, half log titration in duplicates. 293T.109 cells were added into 384-well plates at a cell density of 5000 cells per well. The plates were kept at 37° C. with 5% CO2 for 24 hours. The cells treated in the absence of the test compound were the negative control and the cells without Nano-Glo® HiBiT Lytic reagent were the positive control. After 24-hour incubation, Nano-Glo® HiBIT Lytic Assay reagents were added to the cells. Luminescence was acquired on EnVision™ Multilabel Reader (PerkinElmer, Santa Clara, CA, USA).

PTPN2 [2] = test: HiBiT-Degradation B16F10.4 PTPN2; format: cell-based; settings: B16F10.4 cells, 24.0 hours

SMILES | DC50 (PTPN2 [1]) [nM] | DC50 (PTPN2 [2]) [nM]
Cn1c(=O)n(C2CCC(=O)NC2=O)c2ccc([C@H]3CC[C@H](CC(=O)Nc4ccc5c(F)c(N6CC(=O)NS6(=O)=O)c(O)cc5c4)CC3)cc21 (single isomer, unassigned) [Example 81b, N-(6-(1,1-dioxido-4-oxo-1,2,5-thiadiazolidin-2-yl)-5-fluoro-7-hydroxynaphthalen-2-yl)-2-((1r,4r)-4-(1-(2,6-dioxopiperidin-3-yl)-3-methyl-2-oxo-2,3-dihydro-1H-benzo[d]imidazol-5-yl)cyclohexyl)acetamide] | 10 to 50 | 200 to 1000
Cn1c(=O)n(C2CCC(=O)NC2=O)c2ccc(C3CCN(CCCCCCOc4ccc5cc(O)c(N6CC(=O)NS6(=O)=O)c(F)c5c4)CC3)cc21 (centres unmarked) [Example 98, 3-[5-[1-[6-[[8-fluoro-6-hydroxy-7-(1,1,4-trioxo-1,2,5-thiadiazolidin-2-yl)-2-naphthyl]oxy]hexyl]-4-piperidyl]-3-methyl-2-oxo-benzimidazol-1-yl]piperidine-2,6-dione] | 10 to 50 | 50 to 200
Cn1c(=O)n(C2CCC(=O)NC2=O)c2ccc(-c3ccc(NC(=O)NCCOc4ccc5cc(O)c(N6CC(=O)NS6(=O)=O)c(F)c5c4)cc3)cc21 (centres unmarked) [Example 139, 1-[4-[1-(2,6-dioxo-3-piperidyl)-3-methyl-2-oxo-benzimidazol-5-yl]phenyl]-3-[2-[[8-fluoro-6-hydroxy-7-(1,1,4-trioxo-1,2,5-thiadiazolidin-2-yl)-2-naphthyl]oxy]ethyl]urea] | 50 to 200 | 50 to 200
CC(C)n1c(=O)n(C2CCC(=O)NC2=O)c2ccc(C3CCN(CC(=O)NCCOc4ccc5cc(O)c(N6CC(=O)NS6(=O)=O)c(F)c5c4)CC3)cc21 (centres unmarked) [Example 85, 2-[4-[1-(2,6-dioxo-3-piperidyl)-3-isopropyl-2-oxo-benzimidazol-5-yl]-1-piperidyl]-N-[2-[[8-fluoro-6-hydroxy-7-(1,1,4-trioxo-1,2,5-thiadiazolidin-2-yl)-2-naphthyl]oxy]ethyl]acetamide] | 50 to 200 | 200 to 1000
Cn1c(=O)n(C2CCC(=O)NC2=O)c2ccc(C3CN(CC(=O)Nc4ccc5c(F)c(N6CC(=O)NS6(=O)=O)c(O)cc5c4)C3)cc21 (centres unmarked) [Example 160, 2-[3-[1-(2,6-dioxo-3-piperidyl)-3-methyl-2-oxo-benzimidazol-5-yl]azetidin-1-yl]-N-[5-fluoro-7-hydroxy-6-(1,1,4-trioxo-1,2,5-thiadiazolidin-2-yl)-2-naphthyl]acetamide] | 10 to 50 | 200 to 1000
Cn1c(=O)n(C2CCC(=O)NC2=O)c2ccc(C3CCN(CC(=O)N4CCN(c5ccc6cc(O)c(N7CC(=O)NS7(=O)=O)c(F)c6c5)CC4)CC3)cc21 (centres unmarked) [Example 156, 3-[5-[1-[2-[4-[8-fluoro-6-hydroxy-7-(1,1,4-trioxo-1,2,5-thiadiazolidin-2-yl)-2-naphthyl]piperazin-1-yl]-2-oxo-ethyl]-4-piperidyl]-3-methyl-2-oxo-benzimidazol-1-yl]piperidine-2,6-dione] | 10 to 50 | 200 to 1000
CCn1c(=O)n(C2CCC(=O)NC2=O)c2ccc(C3CCN(CC(=O)Nc4ccc5c(F)c(N6CC(=O)NS6(=O)=O)c(O)cc5c4)CC3)cc21 (centres unmarked) [Example 174, N-(6-(1,1-dioxido-4-oxo-1,2,5-thiadiazolidin-2-yl)-5-fluoro-7-hydroxynaphthalen-2-yl)-2-(4-(1-(2,6-dioxopiperidin-3-yl)-3-ethyl-2-oxo-2,3-dihydro-1H-benzo[d]imidazol-5-yl)piperidin-1-yl)acetamide] | 10 to 50 | 50 to 200
O=C(CCCCCn1cc(CNc2cccc3c2C(=O)N(C2CCC(=O)NC2=O)C3=O)nn1)NCCOc1ccc2cc(O)c(N3CC(=O)NS3(=O)=O)c(Cl)c2c1 (centres unmarked) [Example 49] | ≥ 1000 | 
O=C(CCOCCn1cc(CNc2cccc3c2C(=O)N(C2CCC(=O)NC2=O)C3=O)nn1)NCCOc1ccc2cc(O)c(N3CC(=O)NS3(=O)=O)cc2c1 (centres unmarked) [Example 50] | ≥ 1000 | 
O=C(CCCCCn1cc(CNc2cccc3c2C(=O)N(C2CCC(=O)NC2=O)C3=O)nn1)NCCOc1ccc2cc(O)c(N3CC(=O)NS3(=O)=O)cc2c1 (centres unmarked) [Example 51] | ≥ 1000 | 
